Measured values taken from PubChem BioAssay AID1671282.

Biological target: Tyrosine-protein kinase Fyn (Homo sapiens) (UniProt P06241)
Assay: FYN kinase inhibition, dose response, biochemical, Z'-LYTE, FRET readout, direct format (AID 1671282)
Settings: Z'-LYTE FRET kinase assay, recombinant FYN

Sequence of Tyrosine-protein kinase Fyn (Homo sapiens) (P06241 whole entry, looked up): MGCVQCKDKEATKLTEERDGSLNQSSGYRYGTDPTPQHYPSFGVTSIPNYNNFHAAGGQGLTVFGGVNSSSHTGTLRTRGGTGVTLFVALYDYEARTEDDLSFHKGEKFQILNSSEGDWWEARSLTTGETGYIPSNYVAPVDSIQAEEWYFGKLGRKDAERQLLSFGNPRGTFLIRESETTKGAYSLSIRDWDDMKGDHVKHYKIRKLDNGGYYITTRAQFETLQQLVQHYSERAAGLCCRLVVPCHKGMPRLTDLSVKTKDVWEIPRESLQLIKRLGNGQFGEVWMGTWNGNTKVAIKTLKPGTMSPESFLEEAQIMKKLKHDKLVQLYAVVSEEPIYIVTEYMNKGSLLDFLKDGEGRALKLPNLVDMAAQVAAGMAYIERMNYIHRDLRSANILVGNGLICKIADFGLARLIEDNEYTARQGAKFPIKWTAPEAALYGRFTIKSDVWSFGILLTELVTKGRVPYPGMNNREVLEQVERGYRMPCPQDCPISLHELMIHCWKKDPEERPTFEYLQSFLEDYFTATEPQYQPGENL

IC50: 8.78 µM
SMILES: COc1cc2ncnc(Nc3cccc(Cl)c3)c2cc1OC
